Results from DBAASP.
Converted amounts (≈) assume the structure as drawn. “And” between values parts separate entries of the source, which are not always exact repeats. Equal values may be shown once.

Experiments:
Assay in all cases: ≥ marks a high value that may be exact or a test limit, other limits are often not marked, values filed in µg/mL are converted to µM
[1] = tested on: Escherichia coli ATCC 25922
[2] = tested on: Pseudomonas aeruginosa ATCC 27853
[3] = tested on: Klebsiella pneumoniae ATCC 10031
[4] = tested on: Salmonella enterica subsp. enterica serovar Typhimurium ATCC 14028
[5] = tested on: Bacillus subtilis ATCC 6633
[6] = tested on: Staphylococcus aureus ATCC 6538P
[7] = tested on: Staphylococcus aureus TK784
[8] = tested on: Shigella dysenteriae ATCC 9752
[9] = tested on: Micrococcus luteus ATCC 10240
[10] = tested on: Staphylococcus epidermidis ATCC 12228
[11] = tested on: Bacillus subtilis ATCC 1768
[12] = tested on: Proteus vulgaris ATCC 6380
[13] = tested on: Staphylococcus aureus SG501
[14] = tested on: Corynebacterium diphtheriae ATCC 8032
[15] = tested on: Escherichia coli ATCC 2592
[16] = tested on: Streptococcus pyogenes 77A
[17] = tested on: Pseudomonas aeruginosa ATCC 9027
[18] = tested on: Candida albicans ATCC 36232
[19] = tested on: Corynebacterium diphtheriae ATCC 8024
[20] = tested on: Shigella flexneri ATCC 203
[21] = tested on: Staphylococcus aureus ATCC 6538
[22] = tested on: Streptococcus pyogenes 308A
[23] = tested on: Staphylococcus aureus
[24] = tested on: Micrococcus luteus ATCC 9341
[25] = tested on: Campylobacter jejuni
[26] = tested on: Pseudomonas aeruginosa ATCC 90271
[27] = tested on: Shigella sonnei ATCC 25931
[28] = tested on: Aspergillus flavus ATCC 46283
[29] = tested on: Salmonella enterica subsp. enterica serovar Typhimurium ATCC 13311
[30] = tested on: Pseudomonas aeruginosa
[31] = tested on: Shigella flexneri ATCC 25875
[32] = tested on: Candida albicans ATCC 32354
[33] = tested on: Streptococcus pyogenes ATCC 10389
[34] = tested on: Helicobacter pylori ATCC 43526
[35] = tested on: Aspergillus fumigatus ATCC 16424
[36] = tested on: Shigella sonnei
[37] = tested on: Shigella flexneri
[38] = tested on: Salmonella typhimurium
[39] = tested on: Trichoderma viride ATCC 36316
[40] = tested on: Escherichia coli
[41] = tested on: Aspergillus niger ATCC 20611
[42] = tested on: Campylobacter jejuni ATCC 43051
[43] = tested on: Staphylococcus aureus ATCC 29213
[44] = tested on: Saccharomyces cerevisiae ATCC 24860
[45] = tested on: Streptococcus pyogenes
[46] = tested on: Escherichia coli ATCC 15224
[47] = tested on: Saccharomyces cerevisiae ATCC 44774
[48] = tested on: Cryptococcus neoformans ATCC 34881
[49] = tested on: Escherichia coli ATCC 27325
[50] = tested on: Bacillus subtilis ATCC 62037
[51] = tested on: Pseudomonas putida ATCC 17426
[52] = tested on: Staphylococcus aureus ATCC 15752
[53] = tested on: Candida albicans ATCC 10231
[54] = tested on: Salmonella enterica subsp. enterica serovar Enteritidis ATCC 13076
[55] = tested on: Streptococcus mutans ATCC 25175

CC(C)C[C@H](NC(=O)[C@H](Cc1c[nH]c2ccccc12)NC(=O)[C@H](CCCCN)NC(=O)[C@H](CC(C)C)NC(=O)[C@H](CC(C)C)NC(=O)[C@H](Cc1c[nH]c2ccccc12)NC(=O)[C@H](CCCCN)NC(=O)[C@@H](N)CC(C)C)C(=O)N[C@@H](CCCCN)C(N)=O [LKWLLKWLK]
MIC [1]: 4.07 µM (≈ 5 µg/mL)
MIC [2]: 32.6 µM (≈ 40 µg/mL)
MIC [3]: 16.3 µM (≈ 20 µg/mL)
MIC [4]: 32.6 µM (≈ 40 µg/mL)
MIC [5]: 4.07 µM (≈ 5 µg/mL)
MIC [6]: 2.04 µM (≈ 2.5 µg/mL)
MIC [7]: 16.3 µM (≈ 20 µg/mL)
MIC [8]: ≥ 32.6 µM
MIC [9]: 8.15 µM (≈ 9.99 µg/mL)
MIC [10]: 4.07 µM (≈ 5 µg/mL)

CC[C@H](C)[C@@H]1NC(=O)[C@H](CC(=O)O)NC(=O)[C@@H](NC(=O)[C@@H](NC(=O)[C@@H](N)C(C)C)[C@@H](C)O)CSSC[C@@H]2NC(=O)[C@H](Cc3ccc(O)cc3)NC(=O)CNC(=O)CNC(=O)[C@H](CO)NC(=O)[C@H](CCCN=C(N)N)NC(=O)CNC(=O)[C@H](CCCN=C(N)N)NC(=O)[C@H](Cc3ccccc3)NC(=O)[C@H](CC(C)C)NC(=O)[C@@H]3CSSC[C@@H](C(=O)N[C@@H](CCCN=C(N)N)C(=O)O)NC(=O)[C@H](C(C)C)NC(=O)[C@H](CSSC[C@H](NC(=O)[C@H](C)NC(=O)[C@H](C)NC(=O)[C@H](CC(=O)O)NC(=O)[C@H](CC(N)=O)NC(=O)[C@H](CC(C)C)NC(=O)[C@H](CCCCN)NC(=O)[C@H](C(C)C)NC(=O)CNC(=O)[C@H](CCCCN)NC(=O)[C@H](C)NC(=O)[C@H](CCC(=O)O)NC(=O)[C@H](C(C)C)NC(=O)[C@H](CO)NC(=O)[C@H](CC(C)C)NC1=O)C(=O)N[C@@H](C)C(=O)N[C@@H](C)C(=O)N[C@@H](Cc1cnc[nH]1)C(=O)N3)NC(=O)[C@H](C(C)C)NC(=O)[C@H](CCCN=C(N)N)NC(=O)[C@H](CCCCN)NC(=O)CNC(=O)[C@H](CC(N)=O)NC2=O [VTCDILSVEAKGVKLNDAACAAHCLFRGRSGGYCNGKRVCVCR]
MIC [11]: 0.44 µM
MIC [12]: 6.6 µM
MIC [13]: 0.176 µM
MIC [14]: 1.32 µM
MIC [15]: 22 µM
MIC [16]: 0.22 µM
MIC [17]: > 22 µM
MIC [18]: 22 µM
MIC [5]: 0.22 µM
MIC [19]: 1.76 µM
MIC [20]: 6.6 µM
MIC [21]: 1.38 µM
MIC [9]: 1.1 µM
MIC [22]: 0.352 µM
MIC [23]: 5.5 µM
MIC [24]: 0.686 µM and 1.76 µM
MIC [10]: 1.76 µM

CC[C@H](C)[C@H](NC(=O)CNC(=O)[C@H](CCC(N)=O)NC(=O)CNC(=O)[C@@H](NC(=O)[C@H](CCCCN)NC(=O)[C@H](CCC(=O)O)NC(=O)[C@@H](NC(=O)[C@H](CCCCN)NC(=O)[C@H](CCCCN)NC(=O)[C@H](Cc1ccccc1)NC(=O)[C@H](CC(C)C)NC(=O)[C@H](CCCCN)NC(=O)[C@H](Cc1c[nH]c2ccccc12)NC(=O)[C@@H](N)CCCCN)[C@@H](C)CC)C(C)C)C(=O)NCC(=O)N[C@@H](C)C(=O)N[C@H](C(=O)N[C@@H](CC(C)C)C(=O)N[C@@H](CCCCN)C(=O)N[C@H](C(=O)N[C@@H](CC(C)C)C(=O)N[C@H](C(=O)N[C@H](C(=O)NCC(=O)N[C@@H](CC(C)C)C(N)=O)[C@@H](C)O)[C@@H](C)O)C(C)C)C(C)C [KWKLFKKIEKVGQGIGAVLKVLTTGL]
MIC [25]: 1.54 µM (≈ 4.4 µg/mL)
MIC [26]: 1.54 µM (≈ 4.4 µg/mL)
MIC [27]: 1.58 µM (≈ 4.5 µg/mL)
MIC [28]: 3.71 µM (≈ 10.6 µg/mL)
MIC [29]: 1.72 µM (≈ 4.9 µg/mL)
MIC [30]: 1.33 µM (≈ 3.8 µg/mL)
MIC [31]: 1.47 µM (≈ 4.2 µg/mL)
MIC [32]: 3.96 µM (≈ 11.3 µg/mL)
MIC [33]: 2.63 µM (≈ 7.5 µg/mL)
MIC [34]: 1.61 µM (≈ 4.6 µg/mL)
MIC [35]: 3.68 µM (≈ 10.5 µg/mL)
MIC [36]: 1.65 µM (≈ 4.7 µg/mL)
MIC [37]: 1.65 µM (≈ 4.7 µg/mL)
MIC [38]: 1.54 µM (≈ 4.4 µg/mL)
MIC [39]: 4.62 µM (≈ 13.2 µg/mL)
MIC [40]: 1.26 µM (≈ 3.6 µg/mL)
MIC [41]: 3.15 µM (≈ 9 µg/mL)
MIC [42]: 1.4 µM (≈ 4 µg/mL)
MIC [43]: 2.56 µM (≈ 7.3 µg/mL)
MIC [44]: 4.97 µM (≈ 14.2 µg/mL)
MIC [45]: 2.7 µM (≈ 7.7 µg/mL)
MIC [23]: 3.01 µM (≈ 8.6 µg/mL)
MIC [46]: 1.3 µM (≈ 3.7 µg/mL)

CC(C)[C@H](NC(=O)[C@H](CCCCN)NC(=O)CNC(=O)CNC(=O)[C@H](CCC(N)=O)NC(=O)[C@H](CCCCN)NC(=O)CNC(=O)[C@H](CCCN=C(N)N)NC(=O)CN)C(=O)N[C@@H](CCCN=C(N)N)C(=O)N[C@@H](C)C(=O)N[C@@H](CCCCN)C(=O)N[C@@H](C)C(=O)N[C@@H](CCCCN)C(=O)N[C@H](C(=O)N[C@@H](CCCN=C(N)N)C(=O)N[C@@H](CO)C(=O)N[C@@H](CO)C(=O)O)[C@@H](C)O [GRGKQGGKVRAKAKTRSS]
MIC [47]: ≥ 68.4 µM
MIC [48]: ≥ 68.4 µM
MIC [49]: ≥ 68.4 µM
MIC [50]: ≥ 68.4 µM
MIC [51]: ≥ 68.4 µM
MIC [52]: ≥ 68.4 µM
MIC [53]: > 68.4 µM
MIC [54]: ≥ 68.4 µM
MIC [55]: ≥ 68.4 µM
